A short description of data set [1]: in vitro. The conditions noted are these: dog, MDCK.
Data set [2] is described as follows: in vitro. Particulars: human, microsomes.
Description: Half life in human liver microsomes at 1 uM by LC-MS/MS analysis in presence of NADPH
Data set [3] can be described thus: in vitro. Particulars: dog, MDCK. This is another data set of the same source.
Data set [4] addresses NAD-dependent protein deacylase sirtuin-5, mitochondrial (Homo sapiens, UniProt Q9NXA8).
Data set [5] is described as follows: in vitro. Particulars: dog, MDCK. The source holds these as a separate data set.
Data set [6] is described as follows: in vitro. Particulars: mouse, microsomes.
Description: Half life in mouse liver microsomes at 1 uM by LC-MS/MS analysis in presence of NADPH
Data set [7] is described as follows: in vitro. Particulars: human, plasma.
Description: Metabolic stability in human plasma assessed as parent compound remaining incubated for 6 hrs by LC-MS/MS analysis
The nature of data set [8]: in vitro. The conditions noted are these: mouse, plasma.
Description: Metabolic stability in mouse plasma assessed as parent compound remaining incubated for 6 hrs by LC-MS/MS analysis
The nature of data set [9]: in vitro. Particulars: mouse, plasma. This is another data set of the same source.
Description: Metabolic stability in mouse plasma assessed as parent compound remaining incubated for 24 hrs by LC-MS/MS analysis
Data set [10] in a line: in vitro. Particulars: human, plasma. This is another data set of the same source.
Description: Metabolic stability in human plasma assessed as parent compound remaining incubated for 24 hrs by LC-MS/MS analysis
Data set [11] has as its target T1, NAD-dependent protein deacetylase sirtuin-3, mitochondrial (Homo sapiens, UniProt Q9NTG7).
T1 sequence (Q9NTG7 whole entry): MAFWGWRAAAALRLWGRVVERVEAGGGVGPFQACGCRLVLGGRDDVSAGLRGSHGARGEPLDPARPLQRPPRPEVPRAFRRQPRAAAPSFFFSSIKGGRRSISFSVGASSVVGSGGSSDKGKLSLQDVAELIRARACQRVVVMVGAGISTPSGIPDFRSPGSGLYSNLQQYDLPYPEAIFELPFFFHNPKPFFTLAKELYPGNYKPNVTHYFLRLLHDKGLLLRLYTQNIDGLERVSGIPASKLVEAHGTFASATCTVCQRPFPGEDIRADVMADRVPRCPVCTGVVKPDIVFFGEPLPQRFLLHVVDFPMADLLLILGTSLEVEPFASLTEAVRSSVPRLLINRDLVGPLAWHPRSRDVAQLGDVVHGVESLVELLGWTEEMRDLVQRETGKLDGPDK

Sequence of NAD-dependent protein deacylase sirtuin-5, mitochondrial (Q9NXA8 whole entry): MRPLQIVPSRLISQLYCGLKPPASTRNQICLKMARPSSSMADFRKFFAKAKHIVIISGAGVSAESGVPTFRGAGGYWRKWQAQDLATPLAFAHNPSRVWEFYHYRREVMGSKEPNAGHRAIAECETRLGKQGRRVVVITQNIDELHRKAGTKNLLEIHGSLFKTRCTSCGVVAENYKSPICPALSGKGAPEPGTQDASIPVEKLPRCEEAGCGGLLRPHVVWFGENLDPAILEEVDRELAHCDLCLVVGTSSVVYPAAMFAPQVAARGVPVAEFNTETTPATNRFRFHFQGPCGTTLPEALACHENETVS

The molecule `NC(=O)c1cncc(OCc2cccc(NC(=O)c3cccnc3)c2)c1` gave a Papp A→B at 3 h, 25 µM in “in vitro [1]” of 23 ×10⁻⁶ cm/s. For the same molecule, the results for the half-life at 1 µM in the data set “in vitro [2]” and in “in vitro [6]” were 5.5 h and 0.85 h, respectively. For the same molecule, the Papp B→A at 3 h, 25 µM in “in vitro [3]” was 25 ×10⁻⁶ cm/s. In addition, the concentration for half-maximal inhibition (IC50) in [4] is more than 200 µM. In the data set “in vitro [5]”, this molecule had a recovery at 3 h, 25 µM of more than 90%. In addition, the amount remaining at 6 h in the data set “in vitro [7]” came out at 99%; in “in vitro [8]”, 78%. Further, the share remaining at 24 h in “in vitro [9]” was 25%; in the data set “in vitro [10]”, 97%.

`NC(=O)c1cncc(Oc2cccc3c(NC(=O)c4ccccc4)cccc23)c1` had a Papp A→B at 3 h, 25 µM in the data set “in vitro [1]” of 3.8 ×10⁻⁶ cm/s. Further, the Papp B→A at 3 h, 25 µM in “in vitro [3]” came out at 4.4 ×10⁻⁶ cm/s. The recovery at 3 h, 25 µM in “in vitro [5]” is more than 90%.

In data set [11], `NC(=O)c1cncc(OCc2cccc(NC(=O)C34CC5CC(CC(C5)C3)C4)c2)c1` displayed an IC50 of more than 200 µM.

The Papp A→B is the apparent permeability from the apical to the basolateral side of a cell layer. By half-life is commonly meant how long it takes for the measured level to halve. A higher half-life goes with slow decline. What is called Papp B→A is how fast a substance crosses the layer from the basolateral side. What is called IC50 is the point on the concentration scale where inhibition reaches its midpoint. Low values mean greater potency, high ones weaker potency. In general, fraction remaining refers to what is left of the initial amount, in per cent. Higher therefore signals greater stability.
